Measurements taken from PMC10707468, “Pharmacokinetics of Novel Dopamine Transporter Inhibitor CE-123 and Modafinil with a Focus on Central Nervous System Distribution” (International Journal of Molecular Sciences, 2023).
“And” between values parts separate entries of the source, which are not always exact repeats. Equal entries are not always repeated. Where two headings read alike, the source gives them in different places.

Experiments:
[1] = In vivo rat tissue biodistribution / neuroPK study, 4 h intravenous constant infusion; design: species or system Sprague-Dawley rats; details: rat; for Kp at 4 h / concentration at 4 h: Sprague-Dawley; for Kp at 4 h: brain (whole brain homogenate) relative to plasma, steady state, read-out: Total brain-to-plasma concentration ratio, Kp,brain; for concentration at 4 h: intravenous, 20 mg/kg; for order of Kp,tissue from highest to lowest: total tissue-to-plasma concentration ratio
Procedure: The results are summarized in Figure 4 and Table S2 within Supplementary Materials.
In order to minimize the usage of animals and gain high confidence in the tissue distribution, a 4 h constant intravenous infusion study was designed based on the systemic pharmacokinetic parameters determined elsewhere. The catheters were surgically implanted a day before the PK experiment. The rats (n = 3 per compound) were then individually placed into a CMA 120 system (CMA, Solna, Sweden). […] A dose of 20 mg/kg was administered as a combination of an initial short 10 min infusion as a loading dose followed by a constant infusion up to 4 h, targeting a steady-state total plasma concentration of around 1000 ng/mL for each compound (based on the pilot study results). Blood was collected into heparinized Eppendorf tubes via a femoral artery catheter at 0 (before infusion starts) 1, 2, 3, and 4 h after the infusion started and immediately centrifuged at 10,000 rpm for 5 min at +4 °C. Plasma was then collected and kept at −20 °C. At 4 h, the rats were anesthetized via inhalation of 2.5% isoflurane (Abbot Scandinavia, Solna, Sweden), balanced with 1.5 L/min oxygen, after which the terminal blood and tissue samples were collected. […] The tissue samples (brain, spinal cord, liver, and kidney) were rapidly removed, pre-weighed into a 2 mL hard tissue homogenizing tube with mini-beads, and subsequently homogenized in 2 volumes of MQ water using a 4-Place Bead Mill Homogenizer (VWR, Stockholm, Sweden) at the maximal speed for 2 min and thereafter kept at +4 °C. The plasma and tissue homogenate samples were stored at −20 °C until LC–MS analysis.
For all the rat plasma and CSF samples, an aliquot of 50 µL was spiked with 50 µL of 4% PA in water containing the IS solution to disrupt the drug–protein binding. For all rat tissue samples (brain, spinal cord, liver, and kidney), an aliquot of 50 µL was spiked with 50 µL ice-cold ACN containing the IS solution for protein precipitation. The samples were vortexed and spun down for 10 min (3000× g, 4 °C) and 25 µL of clear supernatant was diluted with 225 µL 0.1% FA in water to achieve 10% of ACN in the solution. SPE clean-up was performed using an Oasis PRiME HLB µElution 96-well plate, 3 mg (Waters Corporation, Vienna, Austria). The SPE cartridges were preconditioned and equilibrated with 1 × 200 µL ACN and 0.1% FA in water each. The samples were loaded onto the cartridges and washed with 2 × 200 µL 0.1% FA in water and 1 × 200 µL ACN/0.1% FA in water 10:90 (v:v). The analytes were eluted from the SPE cartridge into a collection plate with 2 × 25 µL ACN/0.1% FA in water 70:30 (v:v). All the samples were diluted with 50 µL of 0.1% FA in water and 10 µL of sample was injected onto the LC–HRMS system.
All samples, blanks, standards, and quality control samples in the respective matrices were analyzed on a UHPLC system (Dionex UltiMate 3000 RSLC series system, Thermo Fisher Scientific, Inc., Dreieich, Germany) coupled with a high-resolution mass spectrometer (maXis HD Q-TOF, Bruker Daltonics, Bremen, Germany) equipped with a heated electrospray ionization (ESI) source. Reversed-phase chromatographic separation was performed on a Kinetex Phenyl-Hexyl column (2.6 µm, 2.1 × 50 mm, Phenomenex, Torrance, CA, USA), equipped with a precolumn (2.6 µm, Phenomenex, Torrance, CA, USA), at a flow rate of 0.4 mL/min. Eluent A was water containing 0.1% FA and eluent B ACN. A multi-step gradient was optimized as follows: the initial mobile phase composition (5% eluent B) was held constant for 1 min, followed by a linear increase to 30% eluent B until minute 1.5, to 40% eluent B until minute 5.5, and to 95% eluent B until minute 6. After a hold time of 2 min, the column was re-equilibrated for 2.5 min at the initial conditions (5% eluent B). The column compartment and the autosampler were maintained at 40 °C and at 8 °C, respectively. […]

[2] = Equilibrium dialysis, plasma protein binding; assay type: in vitro ADME, rat; details: for free (unbound) in plasma / Fraction unbound in plasma, fu,plasma: rat plasma; for Fraction unbound in plasma, fu,plasma / fraction unbound at 5 h, 10 µM: 10 µM, 5 h, 37 °C, plasma with 10% DMF; for fraction unbound at 5 h, 10 µM: rat, undiluted rat plasma containing 10% DMF, pH 7.4, rat plasma, read-out: Fraction unbound in plasma, fu,plasma
Procedure: A Teflon 96-well plate (model HTD96b, HTDialysis LLC, Gales Ferry, CT, USA) was used in all tissue-binding experiments. Th evaluation of PPB was determined according to van Liempd et al. (2011) and BTB according to the previously published protocols. […] The whole brain tissue from three rats was individually homogenized in 9 volumes of phosphate-buffered saline (PBS), pH 7.4. […] Then, 100 µL of spiked plasma or brain tissue homogenate in triplicate was dialyzed against an equal volume of PBS, pH 7.4, for 5 h at 37 °C and 200 rpm. Furthermore, 50 µL was taken from both sides of the membrane at the end of incubation. The unbound fraction of the compounds in the plasma (fu,plasma) or in the diluted (D) brain homogenate (fu,hD) was calculated according to the following equation:(1) fu,plasma or fu,hD=Cbuffer/Ctissue where Cbuffer represents the concentration of the compound measured in the buffer and Ctissue is the concentration measured in the plasma or brain tissue homogenate. Due to dilution, fu,hD is usually higher than the actual fu,brain. Thus, fu,hD was corrected for the dilution factor (D), which is in this case 10 times. (2) fu,brain=fu,hD/D+fu,hD−D·fu,hD

DAT = details: read-out: Half-maximal inhibitory concentration, IC50, cited from earlier work
[3] = 4 h iv constant infusion 20 mg/kg
[4] = brain, 4 h iv constant infusion 20 mg/kg, n=3, read-out: Total concentration in brain
[5] = kidney, 4 h iv constant infusion 20 mg/kg, n=3, read-out: Total concentration in kidney
[6] = liver, 4 h iv constant infusion 20 mg/kg, n=3, read-out: Total concentration in liver
[7] = plasma, 4 h iv constant infusion 20 mg/kg, n=3, read-out: Total concentration in plasma
[8] = plasma, 4 h iv constant infusion 20 mg/kg, read-out: Total drug concentration in plasma, Ctot,plasma
[9] = plasma, 4 h iv constant infusion 20 mg/kg, read-out: Total steady-state plasma concentration, Cplasma,ss
[10] = plasma, mean, in vivo study, 4 h iv infusion 20 mg/kg, read-out: Unbound-drug concentration in plasma, Cu,plasma
[11] = spinal cord, 4 h iv constant infusion 20 mg/kg, n=3, read-out: Total concentration in spinal cord

Row | Structure (SMILES) | Kp at 4 h [1, 3] | concentration at 4 h [1, 4] [ng/g] | concentration at 4 h [1, 5] [ng/g] | concentration at 4 h [1, 6] [ng/g] | concentration at 4 h [1, 7] [ng/mL] | concentration at 4 h [1, 8] [µM] | concentration at 4 h [1, 9] [µM] | concentration at 4 h [1, 10] [µM] | concentration at 4 h [1, 11] [ng/g] | Total concentration in CSF ([1]; cisterna magna, 4 h iv infusion 20 mg/kg, single rats) | order of Kp,tissue from highest to lowest [1] | free (unbound) in plasma [2] [%] | Fraction unbound in plasma, fu,plasma [2] [unitless] | fraction unbound at 5 h, 10 µM [2] | IC50 (DAT; ref Kristofova et al. 2018 [36]) [µM] | concentration at 4 h ([1]; CSF, cisterna magna, 4 h iv infusion 20 mg/kg, single rats, read-out: Total concentration in CSF) [ng/mL] | concentration at 4 h ([1]; brain, single sample, rat brain after 4 h iv infusion 20 mg/kg, read-out: concentration in rat brain sample (Figure S4 chromatogram)) [ng/mL] | IC50 (DAT; ref Loland et al. 2012 [27]) [µM]
1 | [O-][S@@+](Cc1cncs1)C(c1ccccc1)c1ccccc1 [S-CE-123] | 0.61 ± 0.1 | 820 | 1780 | 2730 | 1050 | 3.35 | 4.15 ± 2.2 | 0.839 | 1240 | 570 ng/mL and 104 ng/mL | liver > kidneys > spinal cord > brain | 25 | 0.252 ± 0.023 | 0.25 | 4.6 | – | – | –
2 | NC(=O)C[S@@+]([O-])C(c1ccccc1)c1ccccc1 [R-modafinil, reference compound] | 0.29 ± 0.013 | 448 | 2540 | 2170 | 1010 | 3.69 | 5.57 ± 0.649 | 2.91 | 733 | – | kidneys > liver > spinal cord > brain | 80 | 0.797 ± 0.15 | 0.79 | – | 784 | 471 | […]
